Data taken from paper PMC3525188, “Assessment of Anticholinesterase Activity of Gelidiella acerosa: Implications for Its Therapeutic Potential against Alzheimer's Disease” (Evidence-based Complementary and Alternative Medicine : eCAM, 2012).

Assays:
[1] = biological target: T1, Electric eel AChE (Type-VI-S, EC 3.1.1.7) (Electrophorus electricus, UniProt O42275); experiment: Ellman assay, Lineweaver-Burk plot, EZ-Fit; format: biochemical; conditions: control without extract, 0.05 M Tris-HCl pH 8.0, RT; unreliable (printed unit nM implausible beside mM substrate)
T1 construct: commercial native enzyme, Sigma Type VI-S
T1 sequence (O42275 24-633): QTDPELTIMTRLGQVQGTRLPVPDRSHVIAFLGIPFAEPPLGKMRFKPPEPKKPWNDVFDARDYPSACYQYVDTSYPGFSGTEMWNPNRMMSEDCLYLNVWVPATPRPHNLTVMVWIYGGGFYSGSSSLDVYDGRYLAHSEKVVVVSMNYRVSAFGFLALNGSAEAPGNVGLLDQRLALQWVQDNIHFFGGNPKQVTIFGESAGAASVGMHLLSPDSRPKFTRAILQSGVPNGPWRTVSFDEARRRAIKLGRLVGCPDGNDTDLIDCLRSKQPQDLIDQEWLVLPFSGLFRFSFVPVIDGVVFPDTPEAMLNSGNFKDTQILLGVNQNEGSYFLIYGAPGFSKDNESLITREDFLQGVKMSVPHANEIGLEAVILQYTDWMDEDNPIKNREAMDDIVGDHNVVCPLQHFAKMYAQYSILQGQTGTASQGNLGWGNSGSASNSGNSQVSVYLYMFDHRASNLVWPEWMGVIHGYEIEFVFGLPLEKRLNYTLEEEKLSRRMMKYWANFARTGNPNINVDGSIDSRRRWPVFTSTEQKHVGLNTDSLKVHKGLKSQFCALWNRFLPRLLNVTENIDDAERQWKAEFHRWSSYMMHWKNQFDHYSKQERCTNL
Text: Ellman assay, Lineweaver-Burk plot, EZ-Fit on Electric eel AChE (Type-VI-S, EC 3.1.1.7)

[2] = biological target: T2, horse serum BuChE (EC 3.1.1.8) (Equus caballus, UniProt P81908); experiment: Ellman assay, Lineweaver-Burk plot, EZ-Fit; format: biochemical; conditions: control without extract, 0.05 M Tris-HCl pH 8.0, RT; unreliable (printed unit nM implausible beside mM substrate)
T2 construct: gene BCHE; commercial native enzyme from horse serum, Sigma
T2 sequence (P81908 whole entry): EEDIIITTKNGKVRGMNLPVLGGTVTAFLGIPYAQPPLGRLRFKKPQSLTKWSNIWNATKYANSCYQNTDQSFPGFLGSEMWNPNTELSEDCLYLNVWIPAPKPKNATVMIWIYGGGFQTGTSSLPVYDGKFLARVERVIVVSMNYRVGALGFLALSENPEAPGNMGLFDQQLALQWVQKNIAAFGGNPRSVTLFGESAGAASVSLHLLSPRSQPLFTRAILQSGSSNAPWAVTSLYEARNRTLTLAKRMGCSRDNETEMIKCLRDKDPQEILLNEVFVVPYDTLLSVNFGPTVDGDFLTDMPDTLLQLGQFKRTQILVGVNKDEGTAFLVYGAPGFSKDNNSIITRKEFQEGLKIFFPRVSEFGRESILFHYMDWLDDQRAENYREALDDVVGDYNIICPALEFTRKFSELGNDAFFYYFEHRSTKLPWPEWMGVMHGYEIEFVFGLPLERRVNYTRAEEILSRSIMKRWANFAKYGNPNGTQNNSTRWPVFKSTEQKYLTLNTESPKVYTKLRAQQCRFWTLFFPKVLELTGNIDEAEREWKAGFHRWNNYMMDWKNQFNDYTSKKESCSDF
Text: Ellman assay, Lineweaver-Burk plot, EZ-Fit on horse serum BuChE (EC 3.1.1.8)

Row | Structure (SMILES) | AChE / Control [1] | BuChE / Control [2]
1 | CC(=O)SCC[N+](C)(C)C [acetylthiocholine iodide] | 0.8774 ± 0.41 nM | 
2 | CCCC(=O)SCC[N+](C)(C)C [butyrylthiocholine iodide] |  | 3.12 ± 0.87 nM
